Results reported in patent US10981894B2, “Melanocortin subtype-2 receptor (MC2R) antagonists and uses thereof” (Crinetics Pharmaceuticals, Inc., priority 2018, dated 2021).

The compounds below were run against hMC2 receptor (Homo sapiens, UniProt Q01718) (assay: hMC2 membrane binding assay ([125I]ACTH (1-39) Tyr23, SPA)). Details: crude hMC2R membranes from CRE-bla-CHO-K1 cells expressing hMC2 receptor and hMRAP; [125I]ACTH (1-39) Tyr23 0.2 nM; 1.5 hours at room temperature; read-out: MC2R binding potency.
hMC2 receptor, sequence (Q01718 whole entry): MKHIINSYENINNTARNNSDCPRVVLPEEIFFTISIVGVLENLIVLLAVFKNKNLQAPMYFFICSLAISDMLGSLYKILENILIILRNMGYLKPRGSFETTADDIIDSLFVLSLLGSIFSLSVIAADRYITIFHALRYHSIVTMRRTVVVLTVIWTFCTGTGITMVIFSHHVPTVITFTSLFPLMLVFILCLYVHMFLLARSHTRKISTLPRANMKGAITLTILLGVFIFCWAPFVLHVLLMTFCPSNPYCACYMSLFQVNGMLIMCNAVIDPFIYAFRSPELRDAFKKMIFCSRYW
hMC2 receptor, sequence (Q8TCY5 whole entry partner): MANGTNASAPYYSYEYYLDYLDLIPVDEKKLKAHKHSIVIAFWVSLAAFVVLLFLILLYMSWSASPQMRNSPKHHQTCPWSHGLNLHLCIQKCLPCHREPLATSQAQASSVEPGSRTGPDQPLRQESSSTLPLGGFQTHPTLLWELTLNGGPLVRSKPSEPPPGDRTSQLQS
Set-up: scale not given here
Method in brief: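 Ki comes from non-linear regression of SPA scintillation counts. Displacement of 0.2 nM [125I]ACTH(1-39) Tyr23 by compound dose series (usually 0–10,000 nM final) ran 1.5 h at room temperature. Membranes came from CHO-K1 CRE-bla cells stably expressing hMC2R plus hMRAP, bead-coupled in pH 7.4 buffer with 0.2% BSA.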

Ki [nM] | Structure (SMILES)
< 10 | CCOc1ccccc1-c1ccc(N2CCN(C(=O)c3ccc(Cl)cc3C(F)(F)F)C[C@H]2CC)c(C(=O)NCCNC)n1 [Compound 1-208, 3-[(2R)-4-[4-chloro-2-(trifluoromethyl)benzoyl]-2-ethylpiperazin-1-yl]-6-(2-ethoxyphenyl)-N-[2-(methylamino)ethyl]pyridine-2-carboxamide]
< 10 | CCOc1ccc(C(=O)N2CCN(c3ccc(-c4cccnc4OCC)nc3C(=O)NCCNC)[C@H](CC)C2)c(C(F)(F)F)c1 [Compound 1-137, 2′-ethoxy-5-[(2R)-4-[4-ethoxy-2-(trifluoromethyl)benzoyl]-2-ethylpiperazin-1-yl]-N-[2-(methylamino)ethyl]-[2,3′-bipyridine]-6-carboxamide]
< 10 | CCOc1ccccc1-c1ccc(N2CCN(C(=O)N3CCC[C@H]3C(C)(C)F)C[C@H]2CC)c(C(=O)N[C@@H]2CCN(C)C2)n1 [Compound 1-412, 6-(2-ethoxyphenyl)-3-[(2R)-2-ethyl-4-[(2S)-2-(2-fluoropropan-2-yl)pyrrolidine-1-carbonyl]piperazin-1-yl]-N-[(3R)-1-methylpyrrolidin-3-yl]pyridine-2-carboxamide]
< 10 | CCOc1ncccc1-c1ccc(N2CCN(C(=O)c3ccc(Cl)cc3C(F)(F)F)C[C@H]2CC)c(C(=O)NC[C@@H]2CCN2C)n1 [Compound 1-232, 5-[(2R)-4-[4-chloro-2-(trifluoromethyl)benzoyl]-2-ethylpiperazin-1-yl]-2′-ethoxy-N-{[(2S)-1-methylazetidin-2-yl]methyl}-[2,3′-bipyridine]-6-carboxamide]
< 10 | CCOc1ccccc1-c1ccc(N2CCN(C(=O)OC(C(C)(C)C)C(F)(F)F)C[C@H]2CC)c(C(=O)N[C@@H]2CCNC2)n1 (stereo partly drawn) [Compound 1-348, 1,1,1-trifluoro-3,3-dimethylbutan-2-yl (3R)-4-[6-(2-ethoxyphenyl)-2-{[(3R)-pyrrolidin-3-yl]carbamoyl}pyridin-3-yl]-3-ethylpiperazine-1-carboxylate]
< 10 | CCOc1ncccc1-c1ccc(N2CCN(C(=O)c3ccc(Cl)cc3C(F)(F)F)C[C@H]2CC)c(C(=O)NC[C@@H]2CCN2)c1F [Compound 1-112, N-{[(2S)-azetidin-2-yl]methyl}-6-[(2R)-4-[4-chloro-2-(trifluoromethyl)benzoyl]-2-ethylpiperazin-1-yl]-3-(2-ethoxypyridin-3-yl)-2-fluorobenzamide]
< 10 | CCOc1ncccc1-c1ccc(N2CCN(C(=O)c3ccc(Cl)cc3N3CC[C@H](CN)C3)C[C@H]2CC)c(C(=O)NCCN)c1 [Compound 1-40, N-(2-aminoethyl)-2-[(2R)-4-{2-[(3R)-3-(aminomethyl)pyrrolidin-1-yl]-4-chlorobenzoyl}-2-ethylpiperazin-1-yl]-5-(2-ethoxypyridin-3-yl)benzamide]
< 10 | CCOc1ncccc1-c1ccc(N2CCN(C(=O)c3ccc(Cl)cc3C(F)F)C[C@H]2CC)c(C(=O)N[C@@H]2CCNC2)c1F [Compound 1-190, 6-[(2R)-4-[4-chloro-2-(difluoromethyl)benzoyl]-2-ethylpiperazin-1-yl]-3-(2-ethoxypyridin-3-yl)-2-fluoro-N-[(3R)-pyrrolidin-3-yl]benzamide]
10 to 100 | CCCOc1ccccc1-c1ccc(N2CCN(C(=O)c3ccc(C(F)(F)F)cc3Cl)C[C@H]2CC)c(C(=O)NCCN)c1 [Compound 1-11, N-(2-aminoethyl)-4-[(2R)-4-[2-chloro-4-(trifluoromethyl)benzoyl]-2-ethylpiperazin-1-yl]-2′-propoxy-[1,1′-biphenyl]-3-carboxamide]
< 10 | CCOc1ncccc1-c1ccc(N2CCN(C(=O)N3CCC[C@H]3C(C)(C)F)C[C@H]2CC)c(C(=O)N[C@@H]2CCNC2)n1 [Compound 1-320, 2′-ethoxy-5-[(2R)-2-ethyl-4-[(2S)-2-(2-fluoropropan-2-yl)pyrrolidine-1-carbonyl]piperazin-1-yl]-N-[(3R)-pyrrolidin-3-yl]-[2,3′-bipyridine]-6-carboxamide]
< 10 | CCOc1ncccc1-c1ccc(N2CCN(C(=O)c3ccc(F)cc3C(F)(F)F)C[C@H]2CC)c(C(=O)NCCN(C)C)c1F [Compound 1-174, N-[2-(dimethylamino)ethyl]-3-(2-ethoxypyridin-3-yl)-6-[(2R)-2-ethyl-4-[4-fluoro-2-(trifluoromethyl)benzoyl]piperazin-1-yl]-2-fluorobenzamide]
< 10 | CCOc1ncccc1-c1ccc(N2CCN(C(=O)c3ccc(NC)nc3C(F)(F)F)C[C@H]2CC)c(C(=O)NCCNC)c1F [Compound 1-163, 3-(2-ethoxypyridin-3-yl)-6-[(2R)-2-ethyl-4-[6-(methylamino)-2-(trifluoromethyl)pyridine-3-carbonyl]piperazin-1-yl]-2-fluoro-N-[2-(methylamino)ethyl]benzamide]
< 10 | CCOc1ccccc1-c1ccc(N2CCN(C(=O)N3CCc4cccc(C(F)(F)F)c43)C[C@H]2CC)c(C(=O)N[C@H]2CCN(C)C2)n1 [Compound 1-402, 6-(2-ethoxyphenyl)-3-[(2R)-2-ethyl-4-[7-(trifluoromethyl)-2,3-dihydro-1H-indole-1-carbonyl]piperazin-1-yl]-N-[(3S)-1-methylpyrrolidin-3-yl]pyridine-2-carboxamide]
< 10 | CCOc1ncccc1-c1ccc(N2CCN(C(=O)C34CCC(C(F)(F)F)(CC3)C4)C[C@H]2CC)c(C(=O)N[C@@H]2CCN(C)C2)n1 [Compound 1-385, 2′-ethoxy-5-[(2R)-2-ethyl-4-[4-(trifluoromethyl)bicyclo[2.2.1]heptane-1-carbonyl]piperazin-1-yl]-N-[(3R)-1-methylpyrrolidin-3-yl]-[2,3′-bipyridine]-6-carboxamide]
< 10 | CCOc1ccccc1-c1ccc(N2CCN(C(=O)[C@H]3CC[C@@H](C(F)(F)F)CC3)C[C@H]2CC)c(C(=O)N[C@@H]2CCNC2)n1 [Compound 1-335, 6-(2-ethoxyphenyl)-3-[(2R)-2-ethyl-4-[cis-4-(trifluoromethyl)cyclohexanecarbonyl]piperazin-1-yl]-N-[(3R)-pyrrolidin-3-yl]pyridine-2-carboxamide]
< 10 | CCOc1ncccc1-c1ccc(N2CCN(C(=O)c3ccc(Cl)cc3Cl)C[C@H]2CC)c(C(=O)NCCN)c1 [Compound 1-42, N-(2-aminoethyl)-2-[(2R)-4-(2,4-dichlorobenzoyl)-2-ethylpiperazin-1-yl]-5-(2-ethoxypyridin-3-yl)benzamide]
< 10 | CCOc1ncccc1-c1ccc(N2CCN(C(=O)c3ccc(Cl)cc3C(F)(F)F)C[C@H]2CC)c(C(=O)NC[C@H]2CCCN2)c1 [Compound 1-108, 2-[(2R)-4-[4-chloro-2-(trifluoromethyl)benzoyl]-2-ethylpiperazin-1-yl]-5-(2-ethoxypyridin-3-yl)-N-{[(2R)-pyrrolidin-2-yl]methyl}benzamide]
< 10 | CCOc1ncccc1-c1ccc(N2CCN(C(=O)c3ccc(OC)nc3C(F)(F)F)C[C@H]2CC)c(CN)n1 [Compound 2-31, 1-{2′-ethoxy-5-[(2R)-2-ethyl-4-[6-methoxy-2-(trifluoromethyl)pyridine-3-carbonyl]piperazin-1-yl]-[2,3′-bipyridin]-6-yl}methanamine]
< 10 | CCOc1ncccc1-c1ccc(N2CCN(C(=O)C3(c4ccc(F)cc4F)CCC3)C[C@H]2CC)c(C(=O)N[C@@H]2CCN(C)C2)n1 [Compound 1-371, 5-[(2R)-4-[1-(2,4-difluorophenyl)cyclobutanecarbonyl]-2-ethylpiperazin-1-yl]-2′-ethoxy-N-[(3R)-1-methylpyrrolidin-3-yl]-[2,3′-bipyridine]-6-carboxamide]
< 10 | CCOc1ncccc1-c1ccc(N2CCN(C(=O)C3(C(F)(F)F)CCCC3)C[C@H]2CC)c(C(=O)NC23CCN(CC2)C3)n1 [Compound 1-405, N-{1-azabicyclo[2.2.1]heptan-4-yl}-2′-ethoxy-5-[(2R)-2-ethyl-4-[1-(trifluoromethyl)cyclopentanecarbonyl]piperazin-1-yl]-[2,3′-bipyridine]-6-carboxamide]
< 10 | CCOc1ncccc1-c1ccc(N2CCN(C(=O)c3ccc(C)cc3N3CC[C@H](N(C)C)C3)C[C@H]2CC)c(C(=O)NCCN)c1 [Compound 1-68, N-(2-aminoethyl)-2-[(2R)-4-{2-[(3S)-3-(dimethylamino)pyrrolidin-1-yl]-4-methylbenzoyl}-2-ethylpiperazin-1-yl]-5-(2-ethoxypyridin-3-yl)benzamide]
< 10 | CCOc1ccccc1-c1ccc(N2CCN(C(=O)N3CCc4cc(F)cc(C#N)c43)C[C@H]2CC)c(C(=O)N[C@H]2CCN(C)C2)n1 [Compound 1-426, 3-[(2R)-4-(7-cyano-5-fluoro-2,3-dihydro-1H-indole-1-carbonyl)-2-ethylpiperazin-1-yl]-6-(2-ethoxyphenyl)-N-[(3S)-1-methylpyrrolidin-3-yl]pyridine-2-carboxamide]
< 10 | CCOc1ccccc1-c1ccc(N2CCN(C(=O)c3ccc(Cl)cc3C(F)(F)F)C[C@H]2CC)c(C(=O)NCCN)c1 [Compound 1-25, N-(2-aminoethyl)-4-[(2R)-4-[4-chloro-2-(trifluoromethyl)benzoyl]-2-ethylpiperazin-1-yl]-2′-ethoxy-[1,1′-biphenyl]-3-carboxamide]
< 10 | CCOc1ncccc1-c1ccc(N2CCN(C(=O)N3CCc4cccc(C#N)c43)C[C@H]2CC)c(C(=O)NC2CN(C)C2)n1 [Compound 1-409, 5-[(2R)-4-(7-cyano-2,3-dihydro-1H-indole-1-carbonyl)-2-ethylpiperazin-1-yl]-2′-ethoxy-N-(1-methylazetidin-3-yl)-[2,3′-bipyridine]-6-carboxamide]
< 10 | CCOc1ncccc1-c1ccc(N2CCN(C(=O)c3ccc(Cl)cc3C(F)(F)F)C[C@H]2CC)c(C(=O)N[C@@H]2CCNC2)c1 [Compound 1-45, 2-[(2R)-4-[4-chloro-2-(trifluoromethyl)benzoyl]-2-ethylpiperazin-1-yl]-5-(2-ethoxypyridin-3-yl)-N-[(3R)-pyrrolidin-3-yl]benzamide]
